According to patent publication US7659270B2, “Hepatitis C virus inhibitors” (Bristol-Myers Squibb Company, priority 2006, dated 2010):
Read-outs that look alike come from different tables or passages of the source.

Test system: HCV 1b-377-neo replicon cells
Experiment: HCV replicon assay (HCV 1b-377-neo replicon cells)
Format: cell-based, Hepatitis C virus genotype 1b
Conditions: read-out: EC50 range against HCV 1b (Range)
Procedure, shortened: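 HCV genotype 1b (1b-377-neo) replicon cells, run as a validated replicon assay; parallel testing in replicon cells carrying the NS5A Y2065H resistance mutation.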

C[C@@H](c1ncc(-c2ccc(-c3ncc(-c4cnc([C@@H]5CCCN5C(=O)[C@@H](c5ccccc5)N5CCCCC5)[nH]4)cn3)cc2)[nH]1)N(C)C(=O)[C@@H](c1ccccc1)N1CCCCC1 [Example 152j-6, (2R)-N-methyl-2-phenyl-N-((1S)-1-(4-(4-(5-(2-((2S)-1-((2R)-2-phenyl-2-(1-piperidinyl)acetyl)-2-pyrrolidinyl)-1H-imidazol-5-yl)-2-pyrimidinyl)phenyl)-1H-imidazol-2-yl)ethyl)-2-(1-piperidinyl)acetamide]
EC50 (Hepatitis C virus): 0.01 to 0.999 nM

COC(=O)N[C@@H](C(=O)N1CCC[C@H]1c1ncc(-c2cnc(-c3ncc(-c4cnc([C@@H]5CCCN5C(=O)[C@H](NC(=O)OC)c5ccccc5)[nH]4)cn3)nc2)[nH]1)c1ccccc1 [Example 153c-4, dimethyl (2,2′-bipyrimi-dine-5,5′-diylbis(1H-imi-dazole-5,2-diyl (2S)-2,1-pyrrolidine-diyl((1R)-2-oxo-1-phe-nyl-2,1-ethane-diyl)))biscarba-mate]
EC50 (Hepatitis C virus): 1000 to 10000 nM

COC(=O)N[C@@H](C(=O)N1CCC[C@H]1c1ncc(-c2ccc(-c3ccc(-c4cnc([C@@H]5CCCN5C(=O)[C@H](NC(=O)OC)c5ccccc5)[nH]4)cc3C)nc2)[nH]1)c1ccccc1 [Example 138, methyl((1R)-2-((2S)-2-(5-(6-(4-(2-((2S)-1-((2R)-2-((methoxycarbonyl)amino)-2-phenylacetyl)-2-pyrrolidinyl)-1H-imidazol-5-yl)-2-methylphenyl)-3-pyridinyl)-1H-imidazol-2-yl)-1-pyrrolidinyl)-2-oxo-1-phenylethyl)carbamate]
EC50 (Hepatitis C virus): 0.01 to 0.999 nM

COC(=O)N[C@@H](C(=O)N[C@@H](C)c1ncc(-c2ccc(-c3ccc(-c4cnc([C@@H]5CCCN5C(=O)[C@H](NC(=O)OC)c5ccccc5)[nH]4)nn3)cc2)[nH]1)c1ccccc1 [Example 152j-14, methyl ((1R)-2-((2S)-2-(5-(6-(4-(2-((1S)-1-(((2R)-2-((methoxycarbonyl)a-mino)-2-phenyl-acetyl)amino)eth-yl)-1H-imidazol-5-yl)phenyl)-3-pyridazinyl)-1H-imidazol-2-yl)-1-pyrrolidinyl)-2-oxo-1-phenylethyl)carbamate]
EC50 (Hepatitis C virus): 1 to 99 nM

COC(=O)N[C@H](C(=O)N1CCC[C@H]1c1ncc(-c2ccc(-c3ccc(-c4cnc([C@@H]5CCCN5C(=O)[C@@H](NC(=NC#N)N(C)C)C(C)C)[nH]4)cc3)cc2)[nH]1)C(C)C [cj-17, methyl((1S)-1-(((2S)-2-(5-(4′-(2-((2S)-1-(N-(cyano(dimethyl)carbamimidoyl)-L-valyl)-2-pyrrolidinyl)-1H-imidazol-5-yl)-4-biphenylyl)-1H-imidazol-2-yl)-1-pyrrolidinyl)carbonyl)-2-methylpropyl)carbamate]
EC50 (Hepatitis C virus): 0.01 to 0.999 nM

COC(=O)N[C@@H](C(=O)N[C@@H](C)c1ncc(-c2ccc(-c3ccc(-c4cnc([C@@H]5CCCN5C(=O)[C@H](NC(=O)OC)c5ccccc5)[nH]4)cc3)nc2)[nH]1)c1ccccc1 [Example 152j-22, methyl ((1R)-2-((2S)-2-(5-(4-(5-(2-((1S)-1-(((2R)-2-((methoxycarbonyl)a-mino)-2-phenyl-acetyl)amino)eth-yl)-1H-imidazol-5-yl)-2-pyridinyl)phenyl)-1H-imidazol-2-yl)-1-pyrrolidinyl)-2-oxo-1-phenylethyl)carbamate]
EC50 (Hepatitis C virus): 0.01 to 0.999 nM

CNCC(=O)N1CCC[C@H]1c1ncc(-c2ccc(-c3ccc(-c4cnc([C@@H]5CCCN5C(=O)[C@@H](NC(=O)OC)C(C)C)[nH]4)cc3)cc2)[nH]1 [LS20]
EC50: 0.01 to 0.999 nM

C[C@H](NC(=O)[C@@H](c1ccccc1)N(C)C)c1ncc(-c2ccc(-c3ccc(-c4cnc([C@@H]5CCCN5C(=O)[C@@H](c5ccccc5)N(C)C)[nH]4)cn3)cc2)[nH]1 [Example 152j-11, (2R)-2-(dimethylamino)-N-((1S)-1-(5-(4-(5-(2-((2S)-1-((2R)-2-(dimethylamino)-2-phenylacetyl)-2-pyrrolidinyl)-1H-imidazol-5-yl)-2-pyridinyl)phenyl)-1H-imidazol-2-yl)ethyl)-2-phenylacetamide]
EC50 (Hepatitis C virus): 0.01 to 0.999 nM

COC(=O)N[C@@H](C(=O)N1CCC[C@H]1c1ncc(-c2ccc(-c3ccc(-c4cnc([C@@H]5CCCN5C(=O)Cc5ccccc5)[nH]4)cc3)cc2)[nH]1)c1ccccc1 [Example 28, methyl((1R)-2-oxo-1-phenyl-2-((2S)-2-(5-(4′-(2-((2S)-1-(phenylacetyl)-2-pyrrolidinyl)-1H-imidazol-5-yl)-4-biphenylyl)-1H-imidazol-2-yl)-1-pyrrolidinyl)ethyl)carbamate]
EC50 (Hepatitis C virus): 1 to 99 nM

COC(=O)N[C@H](C(=O)N1CCC[C@H]1c1ncc(-c2cnc(-c3ccc(-c4cnc([C@@H]5CCCN5C(=O)[C@@H](NC(=O)OC)C(C)C)[nH]4)c(F)c3)nc2)[nH]1)C(C)C [Example D68, methyl ((1S)-1-(((2S)-2-(5-(2-fluoro-4-(5-(2-((2S)-1-((2S)-2-((methoxy-carbonyl)a-mino)-3-methyl-butanoyl)-2-pyrroli-dinyl)-1H-imida-zol-5-yl)-2-pyrimi-dinyl)phenyl)-1H-imida-zol-2-yl)-1-pyrroli-dinyl)carbo-nyl)-2-methylpro-pyl)carbamate]
EC50: 0.01 to 0.999 nM

COC(=O)N[C@H](C(=O)N1CCC[C@H]1c1nc(-c2cnc(-c3ccc(-c4cnc([C@@H]5CCCN5C(=O)[C@@H](NC(=O)OC)C(C)C)[nH]4)cc3)nc2)c[nH]1)C(C)C [Example D74, methyl ((1S)-1-(((2S)-2-(5-(2-(4-(2-((2S)-1-((2S)-2-((methoxy-carbonyl)amino)-3-methyl-butanoyl)-2-pyrroli-dinyl)-1H-imidazol-5-yl)phenyl)-5-pyrimi-dinyl)-1H-imida-zol-2-yl)-1-pyrroli-dinyl)carbon-yl)-2-methylpro-pyl)carba-mate]
EC50 (Hepatitis C virus): 0.01 to 0.999 nM

COC(=O)N[C@@H](C(=O)N1CCC[C@H]1c1ncc(-c2ccc(-c3cnc(-c4cnc([C@@H]5CCCN5C(=O)[C@H](NC(=O)OC)c5ccccc5)[nH]4)cn3)cc2)[nH]1)c1ccccc1 [Example 152j-8, methyl ((1R)-2-((2S)-2-(5-(5-(4-(2-((2S)-1-((2R)-2-((methoxycarbonyl)a-mino)-2-phenylacetyl)-2-pyrrolidinyl)-1H-imidazol-5-yl)phenyl)-2-pyrazinyl)-1H-imidazol-2-yl)-1-pyrrolidinyl)-2-oxo-1-phenylethyl)carbamate]
EC50 (Hepatitis C virus): 0.01 to 0.999 nM

CN(C)[C@@H](C(=O)N1CCC[C@H]1c1ncc(-c2cnc(-c3cnc(-c4cnc([C@@H]5CCCN5C(=O)[C@@H](c5ccccc5)N(C)C)[nH]4)cn3)cn2)[nH]1)c1ccccc1 [Example 153c-5, (1R,1′R)-2,2′-(2,2′-bipyrazine-5,5′-diylbis(1H-imidazole-5,2-diyl (2S)-2,1-pyrrolidine-diyl))bis(N, N-dimeth-yl-2-oxo-1-phenyl-ethanamine)]
EC50 (Hepatitis C virus): 1 to 99 nM

COC(=O)N[C@H](C(=O)N1CCC[C@H]1c1ncc(-c2ccc(-c3ccc(-c4cnc([C@@H]5CCCN5C(=O)[C@@H](NC(=O)OC)C(C)C)[nH]4)cc3CN(C)C)cc2)[nH]1)C(C)C [Example M120, methyl((1S)-1-(((2S)-2-(5-(2-((dimethylamino)methyl)-4′-(2-((2S)-1-((2S)-2-((methoxycarbonyl)amino)-3-methylbutanoyl)-2-pyrrolidinyl)-1H-imidazol-5-yl)-4-biphenylyl)-1H-imidazol-2-yl)-1-pyrrolidinyl)carbonyl)-2-methylpropyl)carbamate]
EC50 (Hepatitis C virus): 100 to 999 nM
